Measurements as given in paper PMC10845205, “Discovery of novel antibacterial agent for the infected wound treatment: all-hydrocarbon stapling optimization of LL-37” (Theranostics, 2024).
In brackets after ≈: the same amount, converted by molar mass. Positions of bridges follow the written chain, without caps; N, C: chain ends. Non-standard residues stand in square brackets, D forms with d. Residues, ends and D or L forms follow the SMILES beside them. S5 = C=CCCC[C@](C)(N)C(=O)O

How the values were obtained:
A. baumannii = conditions: 24 h
Experimental: (§1) According to the protocol of Clinical & Laboratory Standards Institute, the minimum inhibitory concentration (MIC) of the linear and stapled peptides against a panel of gram-positive and gram-negative bacteria was determined by the broth microdilution method. […]
(§2) Bacterial strains and culture
(§3) Bacterial type stains ATCC 25923 S. aureus, ATCC 12228 S. epidermidis, ATCC […]
(§4) aeruginosa and ATCC 13883 K. pneumoniae were obtained from Shanghai Bioresource Collection Center. The bacterial culture medium was purchased from Oxoid and autoclaved according to the instructions from manufacturer. The isolated strains were cultured in Mueller Hinton II broth and continuously shaken at 140 rpm for 18 hours to the middle of the exponential growth phase at 37 °C with an OD value of 0.4-0.5.
(§5) Bacterial suspensions with an OD value of 0.1, approximately […], were then diluted for further assays.
(§6) The minimal inhibition concentration (MIC) of the linear and stapled peptides was determined using the microbroth dilution method from the Clinical and Laboratory Standards Institute (CLSI)[2, 3]. Bacterial suspensions of 10 6 CFU/mL were prepared in MH-II broth and peptide solutions at varying concentrations were prepared in phosphate buffer saline (PBS). Then 50 μL peptide solution and 50 μL bacterial suspension were mixed in a 96 -well plate. Plates were incubated for 24 hours at 37 °C.
(§7) 10 μL AlamarBlue cell viability reagent (ThermoFisher Scientific, UK) was added to each well, then the plate was re -incubated for a further 2 hours at 37 °C. The MIC was recorded as the minimum concentration of peptides required to completely in hibit bacteria growth. For serum stability assessment, the peptide solutions were pre - incubated with 50% human serum for 4 h before the MIC determination. Experiments were performed in 3 independent measurements. […]

E. coli = conditions: 24 h
Experimental: as §1, §2, §3, §4, §5, §6, §7

E. faecalis = conditions: 24 h
Experimental: as §1, §2, §3, §4, §5, §6, §7

K. pneumoniae = conditions: 24 h
Experimental: as §1, §2, §3, §4, §5, §6, §7

P. aeruginosa = conditions: 24 h
Experimental: as §1, §2, §3, §4, §5, §6, §7

S. aureus = conditions: 24 h
Experimental: as §1, §2, §3, §4, §5, §6, §7

S. epidermidis = conditions: 24 h
Experimental: as §1, §2, §3, §4, §5, §6, §7

Serum stability assay = type: in vitro ADME, human; conditions: human serum, 2 mg/mL peptide in pH 7.4 PBS mixed with serum 1:4, 37 °C, up to 48 h, RP-HPLC UV 220 nm, 3 independent measurements
Excerpt: Maintaining high stability and presenting high compatibility in the complex physiological environment are important criterions for the clinical translation of AMPs. […] The derivatives were mixed with human serum in pH 7.4 PBS, simulating the degradation process of peptides by proteases in vivo. The percentages of intact derivatives were monitored and determined with time according to the PR-HPLC. […]
Serum stability of the linear and stapled peptides was examined by RP -HPLC as previously described. 2 mg/mL peptide solution was prepared in pH 7.4 PBS and incubated with human serum (Gemini, USA) to the final volume ratio of 1:4 at 37 °C.
At various time intervals, 50 μL mixture was added to 50 μL ethanol to terminate the enzymatic hydrolysis. After centrifugation at 10,000 rpm for 10 minutes under 4 °C, […]
the supernatant was collected and analyzed by RP-HPLC, with a UV detector monitored at 220 nm. Record the peak area of the intact peptide and calculate the percentage of remaining peptide based on the integrated area as, Peptide remaining (%) = peak area of remaining peptide/peak area of intact peptide×100%. […]

NIH-3T3 cell = conditions: 24 h
Experimental: For development of the stapled KR-12 derivatives to treat bacterial infections in vivo, their cytotoxicity was examined via the CCK-8 assay, which could provide a quantitative assessment of cell viability based on the dehydrogenase activity. The mouse embryonic fibroblast NIH-3T3 cell was selected and incubated with various concentrations of KR-12 and its stapled derivatives.
Mouse embryonic fibroblast cells NIH-3T3 and mouse monocyte macrophage leukemia cells RAW264.7 were obtained from Shanghai Institute of Biochemistry and Cell Biology, Chinese Academy of Sciences. These two cells were maintained in DMEM and RPMI-1640, respectively. Both media were supplemented with 10% FBS and 1% 100 U/mL penicillin-streptomycin solution. Cells were maintained at 37 °C in a 5% CO2 and humidified incubator. Replace the culture medium every day until the cell grows to confluence. Cells were then treated with 0.25% trypsin–EDTA and split using fresh medium for either passage or analysis.
CCK-8 cell counting kit was utilized to examine the cytotoxicity of the linear and stapled peptides. NIH-3T3 cell was planked at a density of 1.5×10^4 cell/well in a 96 - well plate and incubated it for 24 hours at 37 °C. Cells were then treated with different concentrations of peptides in fresh DMEM and incubated for 24 hours before the addition of 10 μL CCK -8 and incubation for a further 1 hour. Measure the absorbance at 450nm using a microplate reader (BioTek, USA) and calculate the percentage of cell viability as: cell viability (%) = (Abspeptide-Absblank)/(Abscontrol-Absblank)×100%, where Abscontrol is the absorbance of cells treated with PBS and Abs blank is the absorbance of the cell-free medium. The data was fitted using the nonlinear regression within

Row | Structure (SMILES) | MIC A. baumannii (A. baumannii) | MIC E. coli (E. coli) | MIC E. faecalis (E. faecalis) | MIC K. pneumoniae (K. pneumoniae) | MIC P. aeruginosa (P. aeruginosa) | MIC S. aureus (S. aureus) | MIC S. epidermidis (S. epidermidis) | TD50 (time at which 50% of the peptide is degraded in the presence of serum) (Serum stability assay) | IC50 against NIH-3T3 cell (NIH-3T3 cell)
1 | CC[C@H](C)[C@H](NC(=O)[C@]1(C)CCCC=CCCC[C@](C)(NC(=O)[C@H](CCCCN)NC(C)=O)C(=O)N[C@@H]([C@@H](C)CC)C(=O)N[C@@H](C(C)C)C(=O)N[C@@H](CCC(N)=O)C(=O)N1)C(=O)N[C@@H](CCCCN)C(=O)N[C@@H](CC(=O)O)C(=O)N[C@@H](Cc1ccccc1)C(=O)N[C@@H](CC(C)C)C(=O)N[C@@H](CCCNC(=N)N)C(N)=O [KR-12 (R2, R6)] (Ac-K[S5]IVQ[S5]IKDFLR-NH2; staple 2-6) | > 256 µg/mL | >256 µg/mL | 128 µg/mL (≈ 82.5 µM) | > 256 µg/mL | > 256 µg/mL | 128 µg/mL (≈ 82.5 µM) | 128 µg/mL (≈ 82.5 µM) | 2.38 h | 78.3 µg/mL (≈ 50.5 µM)
2 | CC[C@H](C)[C@@H]1NC(=O)[C@H](CCCNC(=N)N)NC(=O)[C@@](C)(NC(=O)[C@@H](NC(=O)[C@@H](NC(=O)[C@H](CCCNC(=N)N)NC(=O)[C@H](CCCCN)NC(C)=O)[C@@H](C)CC)C(C)C)CCCC=CCCC[C@@](C)(C(=O)N[C@@H](Cc2ccccc2)C(=O)N[C@@H](CC(C)C)C(=O)N[C@@H](CCCNC(=N)N)C(N)=O)NC(=O)[C@H](CCCCN)NC1=O [KR-12 (Q5, D9)] (Ac-KRIV[S5]RIK[S5]FLR-NH2; staple 5-9) | 16 µg/mL (≈ 9.88 µM) | 8 µg/mL (≈ 4.94 µM) | 8 µg/mL (≈ 4.94 µM) | 128 µg/mL (≈ 79 µM) | 64 µg/mL (≈ 39.5 µM) | 8 µg/mL (≈ 4.94 µM) | 16 µg/mL (≈ 9.88 µM) | 8.91 h | 168.5 µg/mL (≈ 104 µM)
3 | CC[C@H](C)[C@H](NC(=O)[C@H](CCCNC(=N)N)NC(=O)[C@H](CCCCN)NC(C)=O)C(=O)N[C@H](C(=O)N[C@@H](CCC(N)=O)C(=O)N[C@@H](CCCNC(=N)N)C(=O)N[C@@]1(C)CCCC=CCCC[C@@](C)(C(=O)N[C@@H](CCCNC(=N)N)C(N)=O)NC(=O)[C@H](Cc2ccccc2)NC(=O)[C@H](CC(=O)O)NC(=O)[C@H](CCCCN)NC1=O)C(C)C [KR-12 (I7, L11)] (Ac-KRIVQR[S5]KDF[S5]R-NH2; staple 7-11) | 64 µg/mL (≈ 39.1 µM) | 32 µg/mL (≈ 19.5 µM) | 32 µg/mL (≈ 19.5 µM) | 256 µg/mL (≈ 156 µM) | 256 µg/mL (≈ 156 µM) | 32 µg/mL (≈ 19.5 µM) | 128 µg/mL (≈ 78.2 µM) | 11.44 h | 212.8 µg/mL (≈ 130 µM)
4 | CC(=O)N[C@@H](CCCCN)C(=O)N[C@@H](CCCNC(=N)N)C(=O)N[C@@]1(C)CCCC=CCCC[C@@](C)(C(=O)N[C@@H](CCCCN)C(=O)N[C@@H](CC(=O)O)C(=O)N[C@@H](Cc2ccccc2)C(=O)N[C@@H](CC(C)C)C(=O)N[C@@H](CCCNC(=N)N)C(N)=O)NC(=O)[C@H](CCCNC(=N)N)NC(=O)[C@H](CCC(N)=O)NC(=O)[C@H](C(C)C)NC1=O [KR-12 (I3, I7)] (Ac-KR[S5]VQR[S5]KDFLR-NH2; staple 3-7) | 32 µg/mL (≈ 19.5 µM) | 16 µg/mL (≈ 9.77 µM) | 16 µg/mL (≈ 9.77 µM) | 128 µg/mL (≈ 78.2 µM) | 256 µg/mL (≈ 156 µM) | 8 µg/mL (≈ 4.89 µM) | 64 µg/mL (≈ 39.1 µM) | 4.21 h | 145.7 µg/mL (≈ 89 µM)
